Results from patent publication US9682995B2, “Amino-substituted isothiazoles” (BAYER PHARMA AKTIENGESELLSCHAFT, priority 2013, dated 2017).

Columns and labels:
Experiment in all cases: Kinase Profiling (KINOMEscan)
Format in all cases: binding
[1] = target: 456 kinases (of these 395 non-mutant kinases) (Homo sapiens, UniProt Q99683); settings: ASK1; 10 μM
[2] = target: 456 kinases (of these 395 non-mutant kinases) (Homo sapiens, UniProt Q32MK0); settings: MLCK; 10 μM
[3] = target: 456 kinases (of these 395 non-mutant kinases) (Homo sapiens, UniProt O96013); settings: PAK4; 10 μM
[4] = target: 456 kinases (of these 395 non-mutant kinases) (Homo sapiens, UniProt Q9BRS2); settings: RIOK1; 10 μM
[5] = target: 456 kinases (of these 395 non-mutant kinases) (Homo sapiens, UniProt Q9NSY1); settings: BIKE; 10 μM
[6] = target: 456 kinases (of these 395 non-mutant kinases) (Homo sapiens, UniProt Q92772); settings: CDKL2; 10 μM
[7] = target: 456 kinases (of these 395 non-mutant kinases) (Homo sapiens, UniProt Q86UE8); settings: TLK2; 10 μM
[8] = target: 456 kinases (of these 395 non-mutant kinases) (Homo sapiens, UniProt Q00535); settings: CDK5; 10 μM
[9] = target: 456 kinases (of these 395 non-mutant kinases) (Homo sapiens, UniProt P10721); settings: 10 μM
456 kinases (of these 395 non-mutant kinases) (Homo sapiens, UniProt P10721), sequence (P10721 26-976 limits assumed, change not shown): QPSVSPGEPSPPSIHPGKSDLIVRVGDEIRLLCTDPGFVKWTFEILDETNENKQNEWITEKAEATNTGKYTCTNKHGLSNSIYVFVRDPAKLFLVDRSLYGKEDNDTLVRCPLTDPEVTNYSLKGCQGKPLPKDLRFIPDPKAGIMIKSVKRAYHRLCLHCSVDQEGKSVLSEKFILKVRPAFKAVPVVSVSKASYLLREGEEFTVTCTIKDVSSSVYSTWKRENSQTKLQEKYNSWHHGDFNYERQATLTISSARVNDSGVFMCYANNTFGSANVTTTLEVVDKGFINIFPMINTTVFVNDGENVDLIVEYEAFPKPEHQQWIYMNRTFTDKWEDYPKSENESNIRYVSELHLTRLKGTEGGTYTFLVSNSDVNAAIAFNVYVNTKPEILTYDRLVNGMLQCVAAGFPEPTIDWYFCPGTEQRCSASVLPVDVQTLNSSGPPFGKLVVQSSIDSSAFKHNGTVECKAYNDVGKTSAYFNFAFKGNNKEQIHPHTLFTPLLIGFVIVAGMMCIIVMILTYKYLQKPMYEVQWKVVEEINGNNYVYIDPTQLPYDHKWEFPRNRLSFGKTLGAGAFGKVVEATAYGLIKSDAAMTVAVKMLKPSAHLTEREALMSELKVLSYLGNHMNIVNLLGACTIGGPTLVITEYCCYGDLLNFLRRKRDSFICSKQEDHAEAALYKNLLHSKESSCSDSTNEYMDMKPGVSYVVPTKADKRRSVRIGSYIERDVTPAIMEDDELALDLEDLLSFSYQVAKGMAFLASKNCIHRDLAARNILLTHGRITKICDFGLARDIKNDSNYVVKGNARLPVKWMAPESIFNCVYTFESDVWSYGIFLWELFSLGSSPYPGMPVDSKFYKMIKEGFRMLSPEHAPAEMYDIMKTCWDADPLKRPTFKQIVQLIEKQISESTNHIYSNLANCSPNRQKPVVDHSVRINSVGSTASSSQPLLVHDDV

[10] = target: 456 kinases (of these 395 non-mutant kinases) (Homo sapiens, UniProt P24723); settings: PRKCH; 10 μM
[11] = target: 456 kinases (of these 395 non-mutant kinases) (Homo sapiens, UniProt O00444); settings: PLK4; 10 μM
[12] = target: 456 kinases (of these 395 non-mutant kinases) (Homo sapiens, UniProt P42679); settings: CTK; 10 μM
[13] = target: 456 kinases (of these 395 non-mutant kinases) (Homo sapiens, UniProt P32298); settings: GRK4; 10 μM
[14] = target: 456 kinases (of these 395 non-mutant kinases) (Homo sapiens, UniProt O60285); settings: ARK5; 10 μM
[15] = target: 456 kinases (of these 395 non-mutant kinases) (Homo sapiens, UniProt Q92630); settings: DYRK2; 10 μM
[16] = target: 456 kinases (of these 395 non-mutant kinases) (Homo sapiens, UniProt Q86YV6); settings: MYLK4; 10 μM
[17] = target: 456 kinases (of these 395 non-mutant kinases) (Homo sapiens, UniProt P36894); settings: BMPR1A; 10 μM
456 kinases (of these 395 non-mutant kinases) (Homo sapiens, UniProt P36894), sequence (P36894 24-532 limits assumed, change not shown): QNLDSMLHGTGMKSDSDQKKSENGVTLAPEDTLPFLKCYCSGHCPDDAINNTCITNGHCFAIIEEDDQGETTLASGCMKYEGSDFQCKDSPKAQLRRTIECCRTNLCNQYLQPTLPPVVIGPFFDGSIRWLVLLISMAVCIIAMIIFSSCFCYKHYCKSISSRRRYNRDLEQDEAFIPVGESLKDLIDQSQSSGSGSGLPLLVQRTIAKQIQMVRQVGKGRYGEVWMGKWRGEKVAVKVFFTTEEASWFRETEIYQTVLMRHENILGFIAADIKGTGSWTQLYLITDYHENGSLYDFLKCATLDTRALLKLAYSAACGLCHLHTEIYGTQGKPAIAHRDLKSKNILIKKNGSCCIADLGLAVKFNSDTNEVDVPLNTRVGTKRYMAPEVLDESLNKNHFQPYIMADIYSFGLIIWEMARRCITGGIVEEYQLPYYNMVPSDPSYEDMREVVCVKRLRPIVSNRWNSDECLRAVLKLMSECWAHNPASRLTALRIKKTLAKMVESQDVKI

[18] = target: 456 kinases (of these 395 non-mutant kinases) (Homo sapiens, UniProt P80192); settings: MLK1; 10 μM
[19] = target: 456 kinases (of these 395 non-mutant kinases) (Homo sapiens, UniProt P29322); settings: EPHA8; 10 μM
456 kinases (of these 395 non-mutant kinases) (Homo sapiens, UniProt P29322), sequence (P29322 28-1005 limits assumed, change not shown): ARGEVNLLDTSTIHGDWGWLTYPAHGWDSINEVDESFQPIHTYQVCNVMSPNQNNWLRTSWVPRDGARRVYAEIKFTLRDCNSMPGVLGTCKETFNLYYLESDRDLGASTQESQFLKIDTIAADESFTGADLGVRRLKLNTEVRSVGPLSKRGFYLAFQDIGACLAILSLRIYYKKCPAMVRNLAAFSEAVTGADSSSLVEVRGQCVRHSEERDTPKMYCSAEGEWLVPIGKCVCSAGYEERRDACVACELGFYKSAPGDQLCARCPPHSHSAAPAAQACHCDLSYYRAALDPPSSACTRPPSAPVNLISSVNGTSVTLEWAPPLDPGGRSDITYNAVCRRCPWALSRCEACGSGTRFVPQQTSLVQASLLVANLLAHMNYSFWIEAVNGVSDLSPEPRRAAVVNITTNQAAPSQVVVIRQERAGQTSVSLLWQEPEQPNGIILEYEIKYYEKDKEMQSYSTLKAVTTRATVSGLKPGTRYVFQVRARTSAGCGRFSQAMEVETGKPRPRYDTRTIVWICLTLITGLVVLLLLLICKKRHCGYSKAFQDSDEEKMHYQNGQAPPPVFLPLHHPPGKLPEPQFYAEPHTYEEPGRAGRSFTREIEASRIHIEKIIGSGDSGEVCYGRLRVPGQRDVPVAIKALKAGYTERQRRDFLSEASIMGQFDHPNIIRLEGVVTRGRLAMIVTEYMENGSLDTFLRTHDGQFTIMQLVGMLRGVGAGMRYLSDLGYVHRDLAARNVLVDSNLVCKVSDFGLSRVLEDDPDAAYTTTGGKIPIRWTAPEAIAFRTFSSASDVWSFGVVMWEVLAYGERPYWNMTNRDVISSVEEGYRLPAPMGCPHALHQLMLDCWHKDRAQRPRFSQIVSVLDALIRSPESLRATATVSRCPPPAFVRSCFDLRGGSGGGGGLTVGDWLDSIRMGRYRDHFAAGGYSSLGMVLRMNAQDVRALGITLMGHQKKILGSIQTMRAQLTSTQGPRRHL

[20] = target: 456 kinases (of these 395 non-mutant kinases) (Homo sapiens, UniProt Q8TDR2); settings: STK35; 10 μM
[21] = target: 456 kinases (of these 395 non-mutant kinases) (Homo sapiens, UniProt Q59H18); settings: TNNI3K; 10 μM
[22] = target: 456 kinases (of these 395 non-mutant kinases) (Homo sapiens, UniProt P43403); settings: ZAP70; 10 μM
[23] = target: 456 kinases (of these 395 non-mutant kinases) (Homo sapiens, UniProt Q16832); settings: DDR2; 10 μM
456 kinases (of these 395 non-mutant kinases) (Homo sapiens, UniProt Q16832), sequence (Q16832 22-855 limits assumed, change not shown): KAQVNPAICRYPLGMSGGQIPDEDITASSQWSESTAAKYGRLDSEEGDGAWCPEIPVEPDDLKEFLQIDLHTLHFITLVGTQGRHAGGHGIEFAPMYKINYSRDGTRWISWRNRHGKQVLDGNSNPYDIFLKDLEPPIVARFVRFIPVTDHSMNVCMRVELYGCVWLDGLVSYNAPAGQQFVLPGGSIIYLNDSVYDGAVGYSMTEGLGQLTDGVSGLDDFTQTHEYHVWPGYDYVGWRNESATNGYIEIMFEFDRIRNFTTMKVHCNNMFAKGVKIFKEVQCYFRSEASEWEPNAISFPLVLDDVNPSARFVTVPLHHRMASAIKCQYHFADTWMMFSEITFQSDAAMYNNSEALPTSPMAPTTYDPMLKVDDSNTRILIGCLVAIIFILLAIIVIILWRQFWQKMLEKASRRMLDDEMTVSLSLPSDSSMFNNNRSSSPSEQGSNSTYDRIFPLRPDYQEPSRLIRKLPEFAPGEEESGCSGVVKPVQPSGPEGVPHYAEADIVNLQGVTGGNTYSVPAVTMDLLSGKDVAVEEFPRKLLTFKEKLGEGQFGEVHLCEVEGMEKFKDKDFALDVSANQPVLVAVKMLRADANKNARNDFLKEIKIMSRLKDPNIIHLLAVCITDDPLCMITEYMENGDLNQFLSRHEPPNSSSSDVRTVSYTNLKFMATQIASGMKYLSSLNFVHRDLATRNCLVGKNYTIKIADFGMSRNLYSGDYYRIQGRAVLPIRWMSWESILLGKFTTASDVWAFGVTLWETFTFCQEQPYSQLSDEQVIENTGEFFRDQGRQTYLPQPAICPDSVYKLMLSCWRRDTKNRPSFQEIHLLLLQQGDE

[24] = target: 456 kinases (of these 395 non-mutant kinases) (Homo sapiens, UniProt P57059); settings: SIK; 10 μM
[25] = target: 456 kinases (of these 395 non-mutant kinases) (Homo sapiens, UniProt Q9UF33); settings: EPHA6; 10 μM
456 kinases (of these 395 non-mutant kinases) (Homo sapiens, UniProt Q9UF33), sequence (Q9UF33 23-1036 limits assumed, change not shown): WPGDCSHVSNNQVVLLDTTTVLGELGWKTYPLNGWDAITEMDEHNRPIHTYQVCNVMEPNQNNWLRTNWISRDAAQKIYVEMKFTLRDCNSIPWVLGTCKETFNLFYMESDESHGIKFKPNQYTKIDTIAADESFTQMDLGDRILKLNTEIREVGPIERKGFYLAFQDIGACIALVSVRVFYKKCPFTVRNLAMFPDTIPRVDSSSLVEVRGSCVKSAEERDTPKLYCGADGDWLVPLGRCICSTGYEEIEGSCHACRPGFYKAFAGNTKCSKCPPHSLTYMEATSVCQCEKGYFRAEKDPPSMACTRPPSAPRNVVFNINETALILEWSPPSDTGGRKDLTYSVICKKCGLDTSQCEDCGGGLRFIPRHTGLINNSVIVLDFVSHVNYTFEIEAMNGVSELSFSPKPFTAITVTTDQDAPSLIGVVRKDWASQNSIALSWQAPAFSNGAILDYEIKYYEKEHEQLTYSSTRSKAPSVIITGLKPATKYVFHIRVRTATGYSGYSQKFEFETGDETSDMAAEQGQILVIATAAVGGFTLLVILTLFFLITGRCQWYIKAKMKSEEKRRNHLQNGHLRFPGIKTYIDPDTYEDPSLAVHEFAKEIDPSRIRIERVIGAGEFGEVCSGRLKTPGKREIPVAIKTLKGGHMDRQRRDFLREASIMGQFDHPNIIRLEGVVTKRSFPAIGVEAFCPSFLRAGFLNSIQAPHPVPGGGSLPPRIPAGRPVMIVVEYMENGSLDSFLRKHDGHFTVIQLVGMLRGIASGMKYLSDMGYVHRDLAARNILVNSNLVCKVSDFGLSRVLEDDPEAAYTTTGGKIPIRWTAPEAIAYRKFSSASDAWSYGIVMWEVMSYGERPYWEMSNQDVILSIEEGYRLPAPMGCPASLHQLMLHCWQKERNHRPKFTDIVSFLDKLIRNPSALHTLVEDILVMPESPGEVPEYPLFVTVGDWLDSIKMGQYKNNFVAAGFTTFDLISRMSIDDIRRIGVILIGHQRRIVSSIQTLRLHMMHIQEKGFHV

[26] = target: 456 kinases (of these 395 non-mutant kinases) (Homo sapiens, UniProt Q9NY57); settings: YANK2; 10 μM
[27] = target: 456 kinases (of these 395 non-mutant kinases) (Homo sapiens, UniProt P51813); settings: BMX; 10 μM
[28] = target: 456 kinases (of these 395 non-mutant kinases) (Homo sapiens, UniProt P49760); settings: CLK2; 10 μM
[29] = target: 456 kinases (of these 395 non-mutant kinases) (Homo sapiens, UniProt P43405); settings: SYK; 10 μM
[30] = target: 456 kinases (of these 395 non-mutant kinases) (Homo sapiens, UniProt O14578); settings: CIT; 10 μM
[31] = target: 456 kinases (of these 395 non-mutant kinases) (Homo sapiens, UniProt P16234); settings: PDGFRA; 10 μM
[32] = target: 456 kinases (of these 395 non-mutant kinases) (Homo sapiens, UniProt P00519, Q252H); settings: 10 μM

SMILES: CCc1ccccc1NC(=O)c1c(C)nsc1Nc1cnc2cc(F)ccc2n1 [Example 20, N-(2-Ethylphenyl)-5-[(6-fluoroquinoxalin-2-yl)amino]-3-methyl-1,2-thiazole-4-carboxamide]
- % Ctrl @ 10 μM [1]: 90 % Ctrl
- % Ctrl @ 10 μM [2]: 88 % Ctrl
- % Ctrl @ 10 μM [3]: 100 % Ctrl
- % Ctrl @ 10 μM [4]: 100 % Ctrl
- % Ctrl @ 10 μM [5]: 62 % Ctrl
- % Ctrl @ 10 μM [6]: 100 % Ctrl
- % Ctrl @ 10 μM [7]: 94 % Ctrl
- % Ctrl @ 10 μM [8]: 100 % Ctrl
- % Ctrl @ 10 μM ([9]; KIT-autoinhibited): 100 % Ctrl
- % Ctrl @ 10 μM ([9]; KIT): 98 % Ctrl
- % Ctrl @ 10 μM [10]: 100 % Ctrl
- % Ctrl @ 10 μM [11]: 100 % Ctrl
- % Ctrl @ 10 μM [12]: 61 % Ctrl
- % Ctrl @ 10 μM [13]: 77 % Ctrl
- % Ctrl @ 10 μM [14]: 85 % Ctrl
- % Ctrl @ 10 μM [15]: 96 % Ctrl
- % Ctrl @ 10 μM [16]: 100 % Ctrl
- % Ctrl @ 10 μM [17]: 100 % Ctrl
- % Ctrl @ 10 μM [18]: 100 % Ctrl
- % Ctrl @ 10 μM [19]: 96 % Ctrl
- % Ctrl @ 10 μM [20]: 84 % Ctrl
- % Ctrl @ 10 μM [21]: 85 % Ctrl
- % Ctrl @ 10 μM [22]: 88 % Ctrl
- % Ctrl @ 10 μM [23]: 100 % Ctrl
- % Ctrl @ 10 μM [24]: 100 % Ctrl
- % Ctrl @ 10 μM [25]: 85 % Ctrl
- % Ctrl @ 10 μM [26]: 100 % Ctrl
- % Ctrl @ 10 μM [27]: 95 % Ctrl
- % Ctrl @ 10 μM [28]: 77 % Ctrl
- % Ctrl @ 10 μM [29]: 90 % Ctrl
- % Ctrl @ 10 μM [30]: 80 % Ctrl
- % Ctrl @ 10 μM [31]: 100 % Ctrl
- % Ctrl @ 10 μM ([32]; ABL1(Q252H)-nonphosphorylated): 100 % Ctrl
- % Ctrl @ 10 μM ([32]; ABL1(Q252H)-phosphorylated): 100 % Ctrl
